Source: US10282841B1, “Bioinformatic analysis of vascular patterning” (The United States of America as Represented by the …, priority 2011, dated 2019)
Where two headings read alike, the source gives them in different places.

Experiments:
[1] = system: avian chorioallantoic membrane; format: in vivo
Description: To develop the VESGEN system mapping capabilities, proangiogenesis and antiangiogenesis factors were first studied in the avian chorioallantoic membrane, a well-established, experimentally convenient 2D, optically accessible model of microvascular remodeling, angiogenesis and angiogenesis therapeutics.

blood vessels = test: VESGEN analysis of regulators of blood vessel growth by vessel branching generation; format: in vivo; conditions: for vessel number, density or diameter for larger pre-existing vessels: larger pre-existing vessels of G1-G4
Description: The stimulator bFGF and inhibitor TGF-beta1 may be regarded as robust but simple regulators of blood vessel growth, because of their selective regulation of the growth of new small vessels. Other important regulators like vascular endothelial growth factor-165 (VEGF-165), also known as vascular permeability factor (VPF), are more complex in their regulatory activities. […] All healthy and unhealthy (abnormal) fluid shifts in the body are tightly regulated by the small vessels (vascular and lymphatic capillaries) except during trauma such as flesh wounds. The VESGEN system may support analysis of such retinal and brain vascular changes mediating the fluid shifts from images of experimental animals and clinical diagnostic images of humans.

[2] = chorioallantoic membrane, with higher concentrations

For angiostatin, which “vascular morphology on inhibition of angiogenesis” value ([1]; avian chorioallantoic membrane) is on record?
The value was “rendered the vascular tree highly abnormal and irregular”.

Which results are given for basic fibroblast growth factor [bFGF]?
vessel number, density or diameter for larger pre-existing vessels (blood vessels): did not affect; growth of new small vessels of vessel generation G5 and greater (blood vessels): stimulation of the growth of new small vessels of vessel generation G5 and greater; growth of small vessels ([1]; avian chorioallantoic membrane): stimulated specifically the robust growth of many small vessels

How did the “vessel number, density or diameter for larger pre-existing vessels” value (blood vessels) turn out when “transforming growth factor beta-1 [transforming growth factor (TGF) β-1]” was run?
Its value is “did not affect”.

What about the “growth of new small vessels of vessel generation G5 and greater” value (blood vessels) of the same substance?
The value was “inhibition of the growth of new small vessels of vessel generation G5 and greater”.

And the “vascular morphology on inhibition of angiogenesis” value ([1]; avian chorioallantoic membrane)?
Its value is “retained a normal vascular morphology”.

Which “vessel leakage, vessel swelling and vessel tortuosity” value (blood vessels; blood vessel morphology) does the source give for “vascular endothelial growth factor-165 [VEGF]” here?
Its value is “induction of vessel leakage, vessel swelling and vessel tortuosity”.

And the “growth and swelling of the associated lymphatic vascular system” value (blood vessels; lymphatic vascular system)?
Its value is “stimulates the growth and swelling of the associated lymphatic vascular system”.

What about the “growth of new small vessels of vessel generation G5 and greater” value (blood vessels) of the same substance?
The value was “stimulation of the growth of new, small blood vessels”.

What about the “diameter of larger vessels” value ([1]; avian chorioallantoic membrane, at high concentrations) of the same substance?
The value was “significantly dilated”.

What about the “growth of new small vessels” value ([1]; avian chorioallantoic membrane, at low concentrations) of the same substance?
The value was “stimulated the growth of new small vessels”.

What about the vessel density ([1]; chorioallantoic membrane, at low concentrations) of the same substance?
The vessel density was “increased”.

What about the “diameters of larger arteries” value [1, 2] of the same substance?
The value was “increasing diameters of larger arteries”.

What about the vessel density [1, 2] of the same substance?
The vessel density was “progressively decreasing vessel density”.
